Measurements published in patent publication US12171756B2, “NLRP3 modulators” (Innate Tumor Immunity, Inc., priority 2017, dated 2024).

Key:
[1] = system: IL-1β production in PMA-differentiated THP-1 cells; test: Measurement of IL-1β production in PMA-differentiated THP-1 cells (ELISA, 4 hours); format: cell-based, human; conditions: Homo sapiens, THP-1, human IL-1β production, assayed using one or more of the described procedures, read-out: NLRP3 hIL1B IC50
How it was run: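 IL-1β released into supernatant was measured by ELISA after a 4-hour compound exposure (final DMSO 1%, concentrations such as 100 down to 0.1 μM). Cells: THP-1 pretreated 24 h with 10 μg/ml PMA, then trypsinized and seeded at 1×10^6/ml in 2% FBS RPMI.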

human TLR8 = target: T1, human TLR8 (Homo sapiens, UniProt Q9NR97); test: In vitro human TLR8 binding reporter assay (HEK-Blue, NF-kB/AP1-inducible SEAP); format: cell-based; conditions: HEK-Blue human TLR8 SEAP reporter cells; activity range classes; read-out: TLR8 Agonist EC50
T1 construct: host or cells: human HEK-Blue cells (HEK293-derived) co-expressing TLR8 and an NF-kB/AP1-inducible SEAP reporter
T1 sequence (Q9NR97 27-1041): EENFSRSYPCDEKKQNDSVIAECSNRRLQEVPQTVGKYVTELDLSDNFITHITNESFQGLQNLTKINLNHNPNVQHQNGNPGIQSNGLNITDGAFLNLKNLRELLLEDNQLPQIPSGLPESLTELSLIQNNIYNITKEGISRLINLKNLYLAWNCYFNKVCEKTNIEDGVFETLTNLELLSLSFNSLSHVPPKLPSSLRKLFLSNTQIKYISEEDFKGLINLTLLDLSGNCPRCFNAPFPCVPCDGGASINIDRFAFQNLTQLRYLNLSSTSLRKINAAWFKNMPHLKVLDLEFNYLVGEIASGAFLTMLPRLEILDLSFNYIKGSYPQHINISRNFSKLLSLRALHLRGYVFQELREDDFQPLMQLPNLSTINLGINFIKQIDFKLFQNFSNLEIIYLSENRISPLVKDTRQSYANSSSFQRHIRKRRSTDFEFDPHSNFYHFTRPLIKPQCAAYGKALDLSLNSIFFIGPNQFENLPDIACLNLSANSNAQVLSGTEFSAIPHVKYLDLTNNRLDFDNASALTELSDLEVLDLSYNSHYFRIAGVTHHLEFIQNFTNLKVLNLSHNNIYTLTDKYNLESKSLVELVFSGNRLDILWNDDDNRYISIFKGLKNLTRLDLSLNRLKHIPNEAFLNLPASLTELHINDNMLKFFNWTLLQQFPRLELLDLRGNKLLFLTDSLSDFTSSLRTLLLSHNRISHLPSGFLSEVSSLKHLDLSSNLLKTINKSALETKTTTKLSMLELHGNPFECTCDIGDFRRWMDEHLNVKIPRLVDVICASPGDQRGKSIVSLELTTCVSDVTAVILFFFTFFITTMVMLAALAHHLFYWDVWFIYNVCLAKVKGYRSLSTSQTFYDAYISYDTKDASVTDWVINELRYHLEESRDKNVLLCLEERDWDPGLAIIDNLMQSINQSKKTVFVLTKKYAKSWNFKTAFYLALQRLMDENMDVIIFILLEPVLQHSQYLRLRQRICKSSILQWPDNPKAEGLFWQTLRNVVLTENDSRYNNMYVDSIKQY
How it was run: (§1)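 Cells are seeded and grown for 24 h. Compounds or DMSO are then added and incubated 18 h at 37 °C. Quanti-Blue is added, and SEAP is read after thirty minutes. EC50 values are normalized, with RLU from 50 μM reference standard setting 100% Ymax.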

human TLR7 = target: T2, human TLR7 (Homo sapiens, UniProt Q9NYK1); test: In vitro human TLR7 binding reporter assay (HEK-Blue, NF-kB/AP1-inducible SEAP); format: cell-based; conditions: HEK-Blue human TLR7 SEAP reporter cells; activity range classes; read-out: TLR7 Agonist EC50
T2 construct: host or cells: human HEK-Blue cells (HEK293-derived) co-expressing TLR7 and an NF-kB/AP1-inducible SEAP reporter
T2 sequence (Q9NYK1 27-1049): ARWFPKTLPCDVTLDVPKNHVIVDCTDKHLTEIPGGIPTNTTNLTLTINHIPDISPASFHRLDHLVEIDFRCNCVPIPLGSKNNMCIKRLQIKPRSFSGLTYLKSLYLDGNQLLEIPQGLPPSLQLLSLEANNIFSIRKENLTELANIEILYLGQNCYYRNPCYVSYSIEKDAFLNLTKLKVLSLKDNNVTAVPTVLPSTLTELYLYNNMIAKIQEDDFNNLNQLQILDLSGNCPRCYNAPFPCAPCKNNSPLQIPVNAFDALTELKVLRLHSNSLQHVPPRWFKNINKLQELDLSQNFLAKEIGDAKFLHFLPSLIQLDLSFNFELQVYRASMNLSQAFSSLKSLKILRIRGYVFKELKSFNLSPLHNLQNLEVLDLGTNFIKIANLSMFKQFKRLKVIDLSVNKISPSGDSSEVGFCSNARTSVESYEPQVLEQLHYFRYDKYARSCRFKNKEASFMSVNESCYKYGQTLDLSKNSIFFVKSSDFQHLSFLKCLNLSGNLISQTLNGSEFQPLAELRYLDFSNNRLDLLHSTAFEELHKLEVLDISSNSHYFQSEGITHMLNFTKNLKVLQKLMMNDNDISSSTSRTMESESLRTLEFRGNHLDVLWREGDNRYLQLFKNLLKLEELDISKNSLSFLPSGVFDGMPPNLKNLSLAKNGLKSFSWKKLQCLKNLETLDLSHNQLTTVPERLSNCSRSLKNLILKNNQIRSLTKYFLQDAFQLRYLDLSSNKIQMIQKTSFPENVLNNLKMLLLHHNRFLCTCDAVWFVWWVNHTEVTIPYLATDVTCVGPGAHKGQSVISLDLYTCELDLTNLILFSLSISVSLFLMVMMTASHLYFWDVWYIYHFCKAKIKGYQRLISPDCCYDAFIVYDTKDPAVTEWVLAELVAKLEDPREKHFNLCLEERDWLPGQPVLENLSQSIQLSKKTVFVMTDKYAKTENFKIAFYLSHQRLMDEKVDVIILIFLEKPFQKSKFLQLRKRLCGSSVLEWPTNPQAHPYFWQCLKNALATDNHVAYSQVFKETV
How it was run: as §1

Row | Structure (SMILES) | IC50 [1] | EC50 (human TLR8) | EC50 (human TLR7)
1 | CN(C)C(=O)NCCNc1cc(N)nc2cc(-c3ccn[nH]3)ccc12 [Compound 208, 3-(2-((2-amino-7-(1H-pyrazol-5-yl)quinolin-4-yl)amino)ethyl)-1,1-dimethylurea] | 1550 nM | > 100 µM | > 100 µM
2 | Cn1ccnc1C(=O)NCCCNc1cc(N)nc2cc(-c3ccn[nH]3)ccc12 [Compound 209, N-(3-((2-amino-7-(1H-pyrazol-5-yl)quinolin-4-yl)amino)propyl)-1-methyl-1H-imidazole-2-carboxamide, 2TFA] | 1960 nM | > 100 µM | > 100 µM
3 | Cc1nc(C(=O)NCCCNc2cc(N)nc3cc(-c4ccn[nH]4)ccc23)c(C)s1 [Compound 210] | 20800 nM | > 100 µM | > 100 µM
4 | Nc1cc(NCCCNC(=O)c2ccncc2)c2ccc(-c3ccn[nH]3)cc2n1 [Compound 211] | 13500 nM | > 100 µM | > 100 µM
5 | Nc1cc(NCCCNC(=O)c2cccnc2)c2ccc(-c3ccn[nH]3)cc2n1 [Compound 212] | 9270 nM | > 100 µM | > 100 µM
6 | CC(=O)NCCCNc1cc(N)nc2cc(-c3ccn[nH]3)ccc12 [Compound 213, N-(3-((2-amino-7-(1H-pyrazol-5-yl)quinolin-4-yl)amino)propyl)acetamide, 2TFA] | 1550 nM | > 100 µM | > 100 µM
7 | CN(C)C(=O)NCCCNc1cc(N)nc2cc(-c3ccn[nH]3)ccc12 [Compound 214, 3-(3-((2-amino-7-(1H-pyrazol-5-yl)quinolin-4-yl)amino)propyl)-1,1-dimethylurea, 2TFA] | 4610 nM | > 100 µM | > 100 µM
8 | CS(=O)(=O)NCCCNc1cc(N)nc2cc(-c3ccn[nH]3)ccc12 [Compound 215, N-(3-((2-amino-7-(1H-pyrazol-5-yl)quinolin-4-yl)amino)propyl)methanesulfonamide] | 1940 nM | > 100 µM | > 100 µM
9 | Nc1cc(CCCO)c2ccc(-n3cccn3)cc2n1 [Compound 216, 3-(2-amino-7-(1H-pyrazol-1-yl)quinolin-4-yl)propan-1-ol] | 2230 nM | > 100 µM | > 100 µM
10 | CC(=O)NCCc1cc(N)nc2cc(-c3ccn[nH]3)ccc12 [Compound 217, N-(2-(2-amino-7-(1H-pyrazol-5-yl)quinolin-4-yl)ethyl)acetamide] | 14400 nM | > 100 µM | > 100 µM
11 | Nc1cc(CCCCO)c2ccc(-c3ccn[nH]3)cc2n1 [Compound 218, 4-(2-amino-7-(1H-pyrazol-5-yl)quinolin-4-yl)butan-1-ol] | 1190 nM | > 100 µM | > 100 µM
12 | Nc1cc(CCCO)c2ccc(-c3ccsn3)cc2n1 [Compound 219, 3-(2-amino-7-(isothiazol-3-yl)quinolin-4-yl)propan-1-ol] | 2750 nM | > 100 µM | > 100 µM
13 | Nc1cc(OC[C@@H](O)CO)c2ccc(-c3ccn[nH]3)cc2n1 [Compound 220, (S)-3-((2-amino-7-(1H-pyrazol-5-yl)quinolin-4-yl)oxy)propane-1,2-diol] | 570 nM | > 100 µM | > 100 µM
14 | Nc1cc(OC[C@H](O)CO)c2ccc(-c3ccn[nH]3)cc2n1 [Compound 221] | 520 nM | > 100 µM | > 100 µM
15 | N#CCCCNc1cc(N)nc2cc(-c3ccn[nH]3)ccc12 [Compound 222] | 60 nM | > 100 µM | > 100 µM
16 | CC(C)(CNc1cc(N)nc2cc(-c3ccn[nH]3)ccc12)S(C)(=O)=O [Compound 223] | 1350 nM | > 100 µM | > 100 µM

Row | Structure (SMILES) | IC50 [1] | EC50 (human TLR8) | EC50 (human TLR7)
17 | Nc1cc(NCCc2ncn[nH]2)c2ccc(-c3ccn[nH]3)cc2n1 [Compound 224] | 220 nM | > 100 µM | > 100 µM
18 | Nc1cc(NCCc2cnc[nH]2)c2ccc(-c3ccn[nH]3)cc2n1 [Compound 225] | 130 nM | > 100 µM | > 100 µM
19 | Nc1cc(NCc2c[nH]nn2)c2ccc(-c3ccn[nH]3)cc2n1 [Compound 226] | 730 nM | > 100 µM | > 100 µM
20 | Nc1cc(NCc2nc[nH]n2)c2ccc(-c3ccn[nH]3)cc2n1 [Compound 227] | 330 nM | > 100 µM | > 100 µM
21 | Nc1cc(NCc2cn[nH]c2)c2ccc(-c3ccn[nH]3)cc2n1 [Compound 228] | 160 nM | > 100 µM | > 100 µM
22 | Cn1ccc(CNc2cc(N)nc3cc(-c4ccn[nH]4)ccc23)n1 [Compound 229] | 90 nM | > 100 µM | > 100 µM
23 | Nc1cc(NCc2cnco2)c2ccc(-c3ccn[nH]3)cc2n1 [Compound 230] | 540 nM | > 100 µM | > 100 µM
24 | Nc1cc(NCCCn2cncn2)c2ccc(-c3ccn[nH]3)cc2n1 [Compound 231] | 1270 nM | > 100 µM | > 100 µM
25 | Nc1cc(N[C@@H]2CCC[C@@H]2O)c2ccc(-c3ccn[nH]3)cc2n1 [Compound 232] | 230 nM | > 100 µM | > 100 µM
26 | Nc1cc(N[C@H]2C[C@H](O)C2)c2ccc(-c3ccn[nH]3)cc2n1 [Compound 233] | 90 nM | > 100 µM | > 100 µM
27 | Nc1cc(N[C@H]2C[C@@H](O)C2)c2ccc(-c3ccn[nH]3)cc2n1 [Compound 234] | 230 nM | > 100 µM | > 100 µM
28 | Nc1cc(N[C@H]2CCC[C@H]2O)c2ccc(-c3ccn[nH]3)cc2n1 [Compound 235] | 860 nM | > 100 µM | > 100 µM
29 | Cc1cn(CCNc2cc(N)nc3cc(-c4ccn[nH]4)ccc23)nn1 [Compound 236] | 2650 nM | > 100 µM | > 100 µM
30 | Cc1nc[nH]c1CNc1cc(N)nc2cc(-c3ccn[nH]3)ccc12 [Compound 237] | 2570 nM | > 100 µM | > 100 µM
31 | Nc1cc(NCCCc2cccnc2)c2ccc(-c3ccn[nH]3)cc2n1 [Compound 238] | 1490 nM | > 100 µM | > 100 µM
